Assay results published in patent US4226980A, “Novel derivatives of fortimicin B and process for preparing same” (Abbott Laboratories, priority 1978, dated 1980).
Read-outs that look alike come from different tables or passages of the source.

Legend:
Escherichia coli NIHJ-2 = test: antibacterial activity (MIC); assay type: cell-based; settings: medium pH 7.2, Japanese Antibiotic Medicament Standard; unit assumed
Protocol: (§1) Furthermore in the following Table 3, the antibacterial activity (MIC) of the compounds are set forth. The measurement was carried out according to the Japanese Antibiotic Medicament Standard using a medium having a pH of 7.2. Numbers of the compounds in Table 3 correspond to those in Tables 1 and 2.

[1] = test system: Klebsiella pneumoniae #8045; test: antibacterial activity (MIC); assay type: cell-based; settings: medium pH 7.2, Japanese Antibiotic Medicament Standard; unit assumed
Protocol: as §1

Providencia sp. KY3950 = test: antibacterial activity (MIC); assay type: cell-based; settings: medium pH 7.2, Japanese Antibiotic Medicament Standard; unit assumed
Protocol: as §1

[2] = test system: Staphylococcus aureus Smith; test: antibacterial activity (MIC); assay type: cell-based; settings: medium pH 7.2, Japanese Antibiotic Medicament Standard; unit assumed
Protocol: as §1

[3] = test system: Bacillus subtilis ATCC 6633; test: antibacterial activity (MIC); assay type: cell-based; settings: medium pH 7.2, Japanese Antibiotic Medicament Standard; unit assumed
Protocol: as §1

Escherichia coli 3100 = test: antibacterial activity (MIC); assay type: cell-based; settings: medium pH 7.2, Japanese Antibiotic Medicament Standard; unit assumed
Protocol: as §1

[4] = test system: Shigella sonnei ATCC 9290; test: antibacterial activity (MIC); assay type: cell-based; settings: medium pH 7.2, Japanese Antibiotic Medicament Standard; unit assumed
Protocol: as §1

[5] = test system: Pseudomonas aeruginosa BMH#10; test: antibacterial activity (MIC); assay type: cell-based; settings: medium pH 7.2, Japanese Antibiotic Medicament Standard; unit assumed
Protocol: as §1

[6] = test system: Staphylococcus aureus 209-p; test: antibacterial activity (MIC); assay type: cell-based; settings: medium pH 7.2, Japanese Antibiotic Medicament Standard; unit assumed
Protocol: as §1

[7] = test system: various microorganisms including resistant strains; settings: earlier patents; cited from earlier work
[8] = test system: Escherichia coli 57R/W677; test: antibacterial activity (MIC), resistant strain; assay type: cell-based; settings: medium pH 7.2; strain "producing gentamicin" (footnote 4); unit assumed
Protocol: as §1

[9] = test system: Escherichia coli R19 KY-8348; test: antibacterial activity (MIC), resistant strain; assay type: cell-based; settings: medium pH 7.2; strain producing gentamicin acetyltransferase; unit assumed
Protocol: as §1

[10] = test system: Pseudomonas aeruginosa R4 KY8511; test: antibacterial activity (MIC), resistant strain; assay type: cell-based; settings: medium pH 7.2; strain producing gentamicin acetyltransferase; unit assumed
Protocol: as §1

[11] = test system: Pseudomonas aeruginosa R9 KY8516; test: antibacterial activity (MIC), resistant strain; assay type: cell-based; settings: medium pH 7.2; strain "producing kanamycin" (footnote 1); unit assumed
Protocol: as §1

[12] = test system: Escherichia coli R18 KY-8321; test: antibacterial activity (MIC), resistant strain; assay type: cell-based; settings: medium pH 7.2; strain producing gentamicin nucleotidyltransferase and neomycin phosphotransferase II; unit assumed
Protocol: as §1

[13] = test system: Klebsiella pneumniae 3020 Y60; test: antibacterial activity (MIC), resistant strain; assay type: cell-based; settings: medium pH 7.2; strain "producing gentamicin" (footnote 4); unit assumed
Protocol: as §1

Providencia sp. 164 = test: antibacterial activity (MIC), resistant strain; assay type: cell-based; settings: medium pH 7.2; strain producing gentamicin acetyltransferase (footnote 5); unit assumed
Protocol: as §1

[14] = test system: Escherichia coli R17 Z-343; test: antibacterial activity (MIC), resistant strain; assay type: cell-based; settings: medium pH 7.2; strain "producing kanamycin" (footnote 1); unit assumed
Protocol: as §1

[15] = assay type: physicochemical
Description: That is, Compound I-a is almost decomposed in an alkaline solution with a pH of 10 at room temperature for 2 weeks to form compounds having low activity.

[16] = strongly alkaline or alkaline conditions; cited from earlier work

SMILES | antibacterial activity (MIC) (Escherichia coli NIHJ-2) | antibacterial activity (MIC) [1] | antibacterial activity (MIC) (Providencia sp. KY3950) | antibacterial activity (MIC) [2] | antibacterial activity (MIC) [3] | antibacterial activity (MIC) (Escherichia coli 3100) | antibacterial activity (MIC) [4] | antibacterial activity (MIC) [5] | antibacterial activity (MIC) [6] | antibacterial activity (MIC) [8] | antibacterial activity (MIC) [9] | antibacterial activity (MIC) [10] | antibacterial activity (MIC) [11] | antibacterial activity (MIC) [12] | antibacterial activity (MIC) [13] | antibacterial activity (MIC) (Providencia sp. 164) | antibacterial activity (MIC) [14] | other results
CNC1C(O)C(OC2OC(C(C)N)CCC2N)C(N)C(O)C1OC (stereo not drawn) [Compound 1, fortimicin B] | > 100 µg/mL | 100 µg/mL | > 100 µg/mL | 100 µg/mL | 25 µg/mL | 100 µg/mL | > 100 µg/mL | > 100 µg/mL | > 100 µg/mL | > 100 µg/mL | > 100 µg/mL | > 100 µg/mL | > 100 µg/mL | > 100 µg/mL | > 100 µg/mL | > 100 µg/mL | > 100 µg/mL | antibacterial activity (background) [7]: not as good as the other factors
COC1C(O)C(N)C(OC2OC(C(C)N)CCC2N)C(O)C1N(C)C(=O)CN (stereo not drawn) [Compound 2, fortimicin A, reference compound] | 1.56 µg/mL | 1.56 µg/mL |  | 1.56 µg/mL | 0.78 µg/mL | 6.25 µg/mL | 6.25 µg/mL | 0.78 µg/mL | 0.78 µg/mL | 6.25 µg/mL | > 100 µg/mL | > 100 µg/mL | 12.5 µg/mL | 3.12 µg/mL | 6.25 µg/mL | 3.12 µg/mL | 1.56 µg/mL | stability under strongly alkaline conditions ([15]; strongly alkaline conditions): slightly unstable; stability under alkaline conditions (background) [16]: slightly unstable
COC1C(O)C(N)C(OC2OC(C(C)N)CCC2N)C(O)C1N(C)C(=O)CNC(N)=O (stereo not drawn) [Compound 3, fortimicin C, reference compound] | 3.12 µg/mL | 12.5 µg/mL | 25 µg/mL | 12.5 µg/mL | 3.12 µg/mL | 12.5 µg/mL | 25 µg/mL | 3.12 µg/mL | 6.25 µg/mL | 6.25 µg/mL | > 100 µg/mL | > 100 µg/mL | 50 µg/mL | 12.5 µg/mL | 50 µg/mL | 25 µg/mL | 3.12 µg/mL | stability under strongly alkaline conditions [15]: slightly unstable; stability under alkaline conditions (background) [16]: slightly unstable
COC1C(O)C(N)C(OC2OC(C(C)N)CCC2NCCN)C(O)C1N(C)CCN (stereo not drawn) [Compound 5, 4,2'-di-N-(2-aminoethyl)fortimicin B] | 3.12 µg/mL | 3.12 µg/mL | 12.5 µg/mL | 1.56 µg/mL | 1.56 µg/mL | 6.25 µg/mL | 12.5 µg/mL | 1.56 µg/mL | 1.56 µg/mL | 6.25 µg/mL | 25 µg/mL | 100 µg/mL | > 100 µg/mL | 6.25 µg/mL | 25 µg/mL | 50 µg/mL | 3.12 µg/mL | 
COC1C(O)C(N)C(OC2OC(C(C)N)CCC2NC(=O)CN)C(O)C1N(C)C[C@@H](O)CCN (stereo partly drawn) [Compound 6, 4-N-[(S)-4-amino-2-hydroxybutyl]-2'-N-glycylfortimicin B] | 3.12 µg/mL | 1.56 µg/mL | 6.25 µg/mL | 0.78 µg/mL | 0.78 µg/mL | 6.25 µg/mL | 6.25 µg/mL | 0.78 µg/mL | 1.56 µg/mL | 6.25 µg/mL | 3.12 µg/mL | 50 µg/mL | 25 µg/mL | 3.12 µg/mL | 6.25 µg/mL | 6.25 µg/mL | 1.56 µg/mL | 
COC1C(O)C(N)C(OC2OC(C(C)N)CCC2NCCN)C(O)C1N(C)C[C@@H](O)CCN (stereo partly drawn) [Compound 7, 4-N-[(S)-4-amino-2-hydroxybutyl]-2'-N-(2-aminoethyl)fortimicin B] | 3.12 µg/mL | 0.78 µg/mL | 6.25 µg/mL | 1.56 µg/mL | 0.4 µg/mL | 3.12 µg/mL | 3.12 µg/mL | 0.78 µg/mL | 0.78 µg/mL | 3.12 µg/mL | 0.78 µg/mL | 12.5 µg/mL | 6.25 µg/mL | 3.12 µg/mL | 6.25 µg/mL | 12.5 µg/mL | 0.78 µg/mL | 
COC1C(O)C(N)C(OC2OC(C(C)N)CCC2NC(=O)[C@@H](O)CCN)C(O)C1N(C)C[C@@H](O)CCN (stereo partly drawn) [Compound 8, 4-N-[(S)-4-amino-2-hydroxybutyl]-2'-N-[(S)-4-amino-2-hydroxybutyryl]fortimicin B] | 1.56 µg/mL | 1.56 µg/mL | 6.25 µg/mL | 1.56 µg/mL | 0.78 µg/mL | 3.12 µg/mL | 6.25 µg/mL | 0.78 µg/mL | 0.78 µg/mL | 3.12 µg/mL | 3.12 µg/mL | 100 µg/mL | 50 µg/mL | 6.25 µg/mL | 12.5 µg/mL | 6.25 µg/mL | 0.78 µg/mL | 
COC1C(O)C(N)C(OC2OC(C(C)N)CCC2NC[C@@H](O)CCN)C(O)C1N(C)C[C@@H](O)CCN (stereo partly drawn) [Compound 9, 4,2'-di-N-[(S)-4-amino-2-hydroxybutyl]fortimicin B] | 1.56 µg/mL | 1.56 µg/mL | 1.56 µg/mL | 0.78 µg/mL | 0.4 µg/mL | 3.12 µg/mL | 3.12 µg/mL | 0.78 µg/mL | 0.78 µg/mL | 3.12 µg/mL | 6.25 µg/mL | 100 µg/mL | 3.12 µg/mL | 1.56 µg/mL | 3.12 µg/mL | 3.12 µg/mL | 1.56 µg/mL | 
COC1C(O)C(N)C(OC2OC(C(C)N)CCC2NCCO)C(O)C1N(C)C[C@@H](O)CCN (stereo partly drawn) [Compound 10, 4-N-[(S)-4-amino-2-hydroxybutyl]-2'-N-(2-hydroxyethyl)fortimicin B] | 6.25 µg/mL | 6.25 µg/mL | 12.5 µg/mL | 0.78 µg/mL | 0.78 µg/mL | 3.12 µg/mL | 6.25 µg/mL | 1.56 µg/mL | 1.56 µg/mL | 3.12 µg/mL | 100 µg/mL | > 100 µg/mL | 50 µg/mL | 1.56 µg/mL | 100 µg/mL | 50 µg/mL | 3.12 µg/mL | 
NC[C@H]1O[C@H](O[C@H]2[C@H](O)[C@@H](O[C@H]3O[C@H](CO)[C@@H](O)[C@H](N)[C@H]3O)[C@H](N)C[C@@H]2N)[C@H](O)[C@@H](O)[C@@H]1O [KA, kanamycin A, reference compound] | 1.56 µg/mL | 0.78 µg/mL | 12.5 µg/mL | 0.4 µg/mL | 0.4 µg/mL | 3.12 µg/mL | 3.12 µg/mL | 25 µg/mL | 0.4 µg/mL | 100 µg/mL | > 100 µg/mL | > 100 µg/mL | > 100 µg/mL | > 100 µg/mL | > 100 µg/mL | > 100 µg/mL | 12.5 µg/mL | 
